Source: publication PMC7738880, “Identification of novel CD44v6-binding peptides that block CD44v6 and deliver a pro-apoptotic peptide to tumors to inhibit tumor growth and metastasis in mice” (Theranostics, 2021)
Residues, ends and D or L forms follow the SMILES beside them.

Assays:
MDA-MB231 cells [1] = assay: Annexin V/propidium iodide apoptosis assay, MDA-MB231; format: cell-based, human; settings: 2 h, versus combined NLN or NEW and KLA
Description: (§1) For apoptosis assays, cells were plated in 6-well plates at a density of 5 × 10^5 cells per well overnight and treated with different concentrations of peptides (0, 2, 4, 8, 16, 32, 64, 128, and 256 µM) at 37 °C for 2 h. Cells were harvested, washed, and mixed with annexin V binding buffer. Then, 1 μg/mL of propidium iodide and 5 μL of APC annexin V reagent (ThermoFisher Scientific, Waltham, MA) were added to stain necrotic and apoptotic cells. Percent of annexin V-positive and propidium iodide-negative cells were measured using flow cytometry.

4T1-luc cells = assay: 4T1-luc orthotopic spontaneous metastasis model; format: in vivo; settings: 10 mg/kg i.v. thrice weekly for 3 weeks; for hematologic parameters and liver and kidney functional marker levels: n = 5/group; for luminescence signals and total photon flux from the whole body: n = 10 per group; for luminescence signals and total photon flux from the whole body / TUNEL-positive apoptotic cells in primary tumor tissues / number of metastatic tumor nodules / percent survival / tumor volume / tumor weight: more efficiently than combined NLN or NEW and KLA
Description: (§2) 4T1-luc cells (1 × 10^6 cells) were orthotopically inoculated into the mammary fat pads in 6-week-old female BALB/c mice. Panc-1 cells (1 × 10^6 cells) were subcutaneously inoculated into lower right flank in 6-week-old female BALB/c nude mice To monitor 4T1-luc tumor growth, mice were intraperitoneally injected with D-luciferin (150 mg/kg body weight), incubated for 10 min, and subjected to a whole-body bioluminescence imaging using the IVIS imaging system (Perkin Elmer). At two weeks after the inoculation, mice were randomly sorted into groups based on the luminescence intensity (4T1-luc) or tumor size (Panc-1). CD44v6-binding peptides were administered intravenously to 4T1 tumor-bearing mice (n = 6 per group) through the tail vein (14.2 mg/kg body weight, thrice weekly for three weeks) alone or in combination with crizotinib. Crizotinib in 5% DMSO was administered orally (12.5 and 25 mg/kg body weight, twice weekly for three weeks). CD44v6-targeted pro-apoptotic peptides or CD44v6-binding peptides and pro-apoptotic peptide in combination were intravenously administered to 4T1 or Panc-1 tumor-bearing mice (n = 10 per group) through the tail vein (10 mg/kg body weight, thrice weekly for 3 weeks). Primary tumor growth was monitored by measuring tumor volumes using a caliper and total photon flux in the whole body using the IVIS imaging system. The body weights and tumor ulceration were monitored throughout the treatment period. At the end of the treatments, half of the mice were used for the collection of blood, sacrificed, and the primary tumor weights and numbers of metastatic tumor nodules in the isolated lungs were determined. The remaining mice were maintained until death to determine the survival rates. The hematological parameters and liver and kidney function markers in plasma and serum samples were analyzed as described above. The normal ranges of hematological parameters of the BALB/c mouse and BALB/c nude mouse were obtained from Charles River Laboratories website (www.criver.com).

Panc-1 cells [2] = assay: Panc-1 subcutaneous spontaneous metastasis model; format: in vivo, BALB/c nude mouse; settings: 10 mg/kg i.v. thrice weekly for 3 weeks; more efficiently than combined NLN or NEW and KLA
Description: as §2

4T1 cells = assay: Annexin V/propidium iodide apoptosis assay, 4T1; format: cell-based, mouse; settings: 2 h, versus combined NLN or NEW and KLA
Description: as §1

Panc-1 cells [3] = assay: Annexin V/propidium iodide apoptosis assay, Panc-1; format: cell-based, human; settings: 2 h, versus combined NLN or NEW and KLA
Description: as §1

MDA-MB231 cells [4] = assay: Intracellular trafficking with MitoTracker and LysoTracker; format: cell-based, human; settings: peptide 10 µM, 37 °C, 2-4 h, confocal
Description: To examine the intracellular trafficking of peptides cells were incubated with peptides (10 µM) at 37 °C for 2 h and stained with MitoTracker Deep Red FM (ThermoFisher Scientific), a mitochondrial marker. In another set of experiments, cells were incubated with peptides at 37 °C for 4 h and stained with LysoTracker Red DND-99 (ThermoFisher Scientific), a late endosome/lysosome marker. After staining, cells were fixed with 4% paraformaldehyde for 10 min at room temperature, stained with DAPI, and then mounted using ProLong gold anti-fade reagent (ThermoFisher Scientific). Subcellular fluorescence was detected using a confocal microscope (Zeiss).

MDA-MB231-luc cells = assay: MDA-MB231-luc experimental lung metastasis model; format: in vivo
Description: A mouse model of lung metastasis of breast cancer was prepared by injecting 1 × 10^6 MDA-MB231-luc cells into 6-week-old female BALB/c nude mice via tail vein. To monitor the localization of the tumor cells in the lungs, the mice were injected intraperitoneally with D-luciferin at a dose of 150 mg/kg body weight and subjected to a whole-body bioluminescence imaging using IVIS imaging system (Perkin Elmer) after a 10-min resting period. Mice (n = 10 per group) were randomly assigned to groups based on the luminescence intensity. At 1 h after tumor cell injection, tumor-bearing mice received intravenous injections of CD44v6-binding peptides through the tail vein (14.2 mg/kg body weight, thrice weekly for 3 weeks) alone or in combination with orally administered crizotinib in 5% dimethyl sulfoxide (DMSO) (25 mg/kg of body weight, twice weekly for 3 weeks) as previously described, [29]. Metastatic tumor growth after treatments was monitored by measuring the total photon flux (number of photons/second) in the whole body using the IVIS imaging system. The body weights of mice and tumor ulceration were monitored throughout the treatment period. At the end of the treatment period, half of the mice (n = 5 per group) were used for the collection of blood, sacrificed, the lungs were harvested and weighed, and the numbers of metastatic tumor nodules in the lungs were counted. The remaining mice (n = 5 per group) were maintained until death to determine the survival rates. For the analysis of hematological parameters, 1 mL of blood was collected from each mouse and separated into 500 µL aliquots used to prepare serum and plasma. Serum was obtained by centrifuging clotted blood at 4 °C twice, followed by filtration (pore size: 0.22 µm). Plasma was obtained by centrifuging ethylenediaminetetraacetic acid-treated samples. Hematological parameters and liver and kidney function markers were measured by DGMIF (Daegu, Korea).

[5] = molecular target: CD44v6, endogenous in MDA-MB231 human breast tumor cells (human (endogenous in MDA-MB231)); assay: saturation binding to cells; saturation binding assays on MDA-MB231, 4T1, Panc-1 and MCF7 cells (Figure S2A); method and label of the peptide not given
Sequence of CD44v6, endogenous in MDA-MB231 human breast tumor cells (human (endogenous in MDA-MB231)) (P16070 21-742): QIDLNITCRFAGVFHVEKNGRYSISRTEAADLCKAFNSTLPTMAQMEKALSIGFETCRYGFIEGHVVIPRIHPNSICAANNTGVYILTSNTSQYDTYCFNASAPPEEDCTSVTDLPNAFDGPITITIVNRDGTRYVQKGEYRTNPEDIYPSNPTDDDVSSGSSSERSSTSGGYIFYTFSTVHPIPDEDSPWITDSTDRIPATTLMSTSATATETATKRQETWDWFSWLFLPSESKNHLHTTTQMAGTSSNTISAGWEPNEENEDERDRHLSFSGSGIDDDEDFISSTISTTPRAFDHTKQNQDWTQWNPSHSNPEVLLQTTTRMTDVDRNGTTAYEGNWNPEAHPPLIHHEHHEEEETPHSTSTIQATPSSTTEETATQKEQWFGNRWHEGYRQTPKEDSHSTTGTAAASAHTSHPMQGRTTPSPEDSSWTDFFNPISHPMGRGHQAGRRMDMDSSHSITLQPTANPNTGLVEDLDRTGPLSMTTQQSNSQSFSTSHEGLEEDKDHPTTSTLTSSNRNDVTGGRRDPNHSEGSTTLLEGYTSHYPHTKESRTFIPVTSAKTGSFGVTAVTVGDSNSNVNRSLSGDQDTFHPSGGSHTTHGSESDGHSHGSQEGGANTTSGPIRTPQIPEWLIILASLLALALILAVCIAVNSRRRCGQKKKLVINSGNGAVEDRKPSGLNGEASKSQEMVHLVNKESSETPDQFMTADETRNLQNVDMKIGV

| Kd [5] [µM] | Molecule | induction of apoptosis, MDA-MB231 (MDA-MB231 cells [1]) | hematologic parameters and liver and kidney functional marker levels (4T1-luc cells) | luminescence signals and total photon flux from the whole body (4T1-luc cells) | TUNEL-positive apoptotic cells in primary tumor tissues (4T1-luc cells) | number of metastatic tumor nodules (4T1-luc cells) | percent survival (4T1-luc cells) | tumor volume (4T1-luc cells) | tumor weight (4T1-luc cells) | percent survival and TUNEL-positive apoptotic cells in tumor tissues (Panc-1 cells [2]) | tumor growth and metastasis to the lungs (Panc-1 cells [2]) | induction of apoptosis, 4T1 (4T1 cells) | induction of apoptosis, Panc-1 (Panc-1 cells [3]) | intracellular localization (MDA-MB231 cells [4]) | growth of MDA-MB231-luc metastases in the lungs (MDA-MB231-luc cells; crizotinib 25 mg/kg oral twice weekly for 3 weeks) | survival rate (MDA-MB231-luc cells; peptide 14.2 mg/kg i.v. thrice weekly or crizotinib 25 mg/kg oral twice weekly, 3 weeks, single treatment) |
| --- | --- | --- | --- | --- | --- | --- | --- | --- | --- | --- | --- | --- | --- | --- | --- | --- |
|  | CC(C)C[C@H](NC(=O)[C@H](CCCCN)NC(=O)CNC(=O)CNC(=O)CNC(=O)[C@H](CS)NC(=O)[C@H](CO)NC(=O)[C@H](CCCCN)NC(=O)[C@H](CC(C)C)NC(=O)[C@H](CCC(N)=O)NC(=O)[C@H](Cc1c[nH]c2ccccc12)NC(=O)[C@H](CCC(=O)O)NC(=O)[C@H](CC(N)=O)NC(=O)[C@@H](N)CS)C(=O)N[C@@H](C)C(=O)N[C@@H](CCCCN)C(=O)N[C@@H](CC(C)C)C(=O)N[C@@H](C)C(=O)N[C@@H](CCCCN)C(=O)N[C@@H](CCCCN)C(=O)N[C@@H](CC(C)C)C(=O)N[C@@H](C)C(=O)N[C@@H](CCCCN)C(=O)N[C@@H](CC(C)C)C(=O)N[C@@H](C)C(=O)N[C@@H](CCCCN)C(=O)O [NEW-KLA] (H-CNEWQLKSCGGGKLAKLAKKLAKLAK-OH) | more efficiently than the combined treatment | within or close to the normal ranges | decreased | increasing | reduced | increasing | reduced | reduced | increased | inhibited | more efficiently than the combined treatment | more efficiently than the combined treatment | closely co-localized with mitochondria and lysosomes |  |  |
|  | CC[C@H](C)[C@H](NC(=O)[C@@H](NC(=O)[C@H](CC(N)=O)NC(=O)[C@H](CC(C)C)NC(=O)[C@H](CC(N)=O)NC(=O)[C@@H](N)CS)[C@@H](C)O)C(=O)N[C@@H](CC(=O)O)C(=O)N[C@H](C(=O)N[C@@H](CS)C(=O)NCC(=O)NCC(=O)NCC(=O)N[C@@H](CCCCN)C(=O)N[C@@H](CC(C)C)C(=O)N[C@@H](C)C(=O)N[C@@H](CCCCN)C(=O)N[C@@H](CC(C)C)C(=O)N[C@@H](C)C(=O)N[C@@H](CCCCN)C(=O)N[C@@H](CCCCN)C(=O)N[C@@H](CC(C)C)C(=O)N[C@@H](C)C(=O)N[C@@H](CCCCN)C(=O)N[C@@H](CC(C)C)C(=O)N[C@@H](C)C(=O)N[C@@H](CCCCN)C(=O)O)[C@@H](C)O [NLN-KLA] (H-CNLNTIDTCGGGKLAKLAKKLAKLAK-OH) | more efficiently than the combined treatment | within or close to the normal ranges | decreased | increasing | reduced | increasing | reduced | reduced | increased | inhibited | more efficiently than the combined treatment | more efficiently than the combined treatment | closely co-localized with mitochondria and lysosomes |  |  |
|  | C[C@@H](Oc1cc(-c2cnn(C3CCNCC3)c2)cnc1N)c1c(Cl)ccc(F)c1Cl [crizotinib, reference compound] |  |  |  |  |  |  |  |  |  |  |  |  |  | inhibited | increased the survival rate |
| 12 | CNLNTIDTC [… peptide (NLN), label not stated] |  |  |  |  |  |  |  |  |  |  |  |  |  |  |  |
| 18 | CNEWQLKSC [… peptide (NEW), label not stated] |  |  |  |  |  |  |  |  |  |  |  |  |  |  |  |
